Experiments:
Type in all cases: in vivo
kochia (Kochia scoparia) = experiment: Test C greenhouse herbicide test, postemergence
Outline: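 Postemergence foliar treatment, 1- to 4-leaf stage (2–18 cm), peat/vermiculite medium; greenhouse 13–15 d; visual rating vs controls, 0 = no effect, 100 = complete control; dash = no result.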

[1] = test system: morningglory (Ipomoea coccinea); experiment: Test C greenhouse herbicide test, pre- and postemergence
Outline: (§1)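 Seeds sown in loam–sand blend treated preemergence; plants in peat-based medium sprayed postemergence at 2–18 cm (1- to 4-leaf stage); chemicals in non-phytotoxic solvent with surfactant. Greenhouse 13–15 d, then visual rating versus controls on 0–100 scale (0 no effect, 100 complete control).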

[2] = test system: lambsquarters (Chenopodium album); experiment: as above
Outline: as §1

[3] = test system: ragweed (common ragweed, Ambrosia elatior); experiment: as above
Outline: as §1

soybean (Glycine max) = experiment: as above
Outline: as §1

[4] = test system: waterhemp (common waterhemp, Amaranthus rudis); experiment: as above
Outline: as §1

[5] = test system: oilseed rape (Brassica napus); experiment: as above
Outline: as §1

corn (Zea mays) = experiment: as above
Outline: as §1

[6] = test system: blackgrass (Alopecurus myosuroides); experiment: as above
Outline: as §1

[7] = test system: crabgrass, large (large crabgrass, Digitaria sanguinalis); experiment: as above
Outline: as §1

[8] = test system: ryegrass, Italian (Italian ryegrass, Lolium multiflorum); experiment: as above
Outline: as §1

[9] = test system: pigweed (Amaranthus retroflexus); experiment: as above
Outline: as §1

[10] = test system: foxtail, giant (giant foxtail, Setaria faberii); experiment: as above
Outline: as §1

[11] = test system: wheat (winter wheat, Triticum aestivum); experiment: as above
Outline: as §1

[12] = test system: nutsedge, yellow (yellow nutsedge, Cyperus esculentus); experiment: as above
Outline: as §1

[13] = test system: johnsongrass (Sorghum halepense); experiment: as above
Outline: as §1

[14] = Postemergence, 31 g ai/ha, scale 0 to 100 (0 no effect, 100 complete control)
[15] = Postemergence, 62 g ai/ha, 0 to 100 scale (0 no effect, 100 complete control)
[16] = Postemergence, 250 g ai/ha, scale 0 to 100, 0 no effect, 100 complete control, 13 to 15 d
[17] = postemergence, 125 g ai/ha, scale 0 to 100, 0 no effect, 100 complete control
[18] = Preemergence, 31 g ai/ha, scale 0 to 100, 0 is no effect, 100 is complete control
[19] = Preemergence, 62 g ai/ha, scale 0 to 100, 0 is no effect, 100 is complete control
[20] = Preemergence, 125 g ai/ha, scale 0 to 100, 0 is no effect, 100 is complete control
[21] = Preemergence, 250 g ai/ha, scale 0 to 100 (0 no effect, 100 complete control)

In the case of `COC(=O)Oc1c(Br)nn(C)c(=O)c1-c1c(C)ccc2ccccc12` [Compound 137], the “Plant response rating, Kochia” value (kochia (Kochia scoparia); [14]) is reported as 100, the “Kochia plant response rating” value (kochia (Kochia scoparia); [15]) is reported as 100 and the “Plant response rating, Kochia” value (kochia (Kochia scoparia); [16]) is reported as 100. For the same compound, the “Kochia plant response rating” value (kochia (Kochia scoparia); [17]) was 100, the “Plant response rating, Morningglory” value [1, 14] was 100 and the “Morningglory plant response rating” value [1, 15] was 98. For the same compound, the “Plant response rating, Morningglory” value [1, 16] was 100, the “Plant response rating, Morningglory” value [1, 18] was 70 and the “Plant response rating, Morningglory” value [1, 19] was 85. For the same compound, the “Plant response rating, Morningglory” value [1, 20] was 90, the “Morningglory plant response rating” value [1, 21] was 98 and the “Morningglory plant response rating” value [1, 17] was 100. For the same compound, the “Plant response rating, Lambsquarters” value [2, 14] was 90, the “Lambsquarters plant response rating” value [2, 15] was 90 and the “Plant response rating, Lambsquarters” value [2, 16] was 100. For the same compound, the “Plant response rating, Lambsquarters” value [2, 18] was 90, the “Plant response rating, Lambsquarters” value [2, 19] was 100 and the “Plant response rating, Lambsquarters” value [2, 20] was 100. The “Lambsquarters plant response rating” value [2, 21] was 95, the “Lambsquarters plant response rating” value [2, 17] was 98 and the “Plant response rating, Ragweed” value [3, 14] was 10. The “Ragweed plant response rating” value [3, 15] was 20, the “Plant response rating, Ragweed” value [3, 16] was 40 and the “Plant response rating, Ragweed” value [3, 18] was 80. For the same compound, the “Plant response rating, Ragweed” value [3, 19] was 95, the “Plant response rating, Ragweed” value [3, 20] was 95 and the “Ragweed plant response rating” value [3, 21] was 100. The “Ragweed plant response rating” value [3, 17] was 30, the “Plant response rating, Soybean” value (soybean (Glycine max); [14]) was 10 and the “Soybean plant response rating” value (soybean (Glycine max); [15]) was 10. For the same compound, the “Plant response rating, Soybean” value (soybean (Glycine max); [16]) was 20, the “Plant response rating, Soybean” value (soybean (Glycine max); [18]) was 30 and the “Plant response rating, Soybean” value (soybean (Glycine max); [19]) was 20. The “Plant response rating, Soybean” value (soybean (Glycine max); [20]) was 40, the “Soybean plant response rating” value (soybean (Glycine max); [21]) was 30 and the “Soybean plant response rating” value (soybean (Glycine max); [17]) was 15. The “Plant response rating, Waterhemp” value [4, 14] was 85, the “Waterhemp plant response rating” value [4, 15] was 65 and the “Plant response rating, Waterhemp” value [4, 16] was 90. The “Plant response rating, Waterhemp” value [4, 18] was 85, the “Plant response rating, Waterhemp” value [4, 19] was 98 and the “Plant response rating, Waterhemp” value [4, 20] was 95. For the same compound, the “Waterhemp plant response rating” value [4, 21] was 98, the “Waterhemp plant response rating” value [4, 17] was 85 and the “Plant response rating, Oilseed Rape” value [5, 14] was 95. The “Oilseed Rape plant response rating” value [5, 15] was 98, the “Plant response rating, Oilseed Rape” value [5, 16] was 98 and the “Plant response rating, Oilseed Rape” value [5, 18] was 0. The “Plant response rating, Oilseed Rape” value [5, 19] was 90, the “Plant response rating, Oilseed Rape” value [5, 20] was 50 and the “Oilseed Rape plant response rating” value [5, 21] was 90. The “Oilseed Rape plant response rating” value [5, 17] was 98, the “Plant response rating, Corn” value (corn (Zea mays); [14]) was 5 and the “Corn plant response rating” value (corn (Zea mays); [15]) was 15. The “Plant response rating, Corn” value (corn (Zea mays); [16]) was 20, the “Plant response rating, Corn” value (corn (Zea mays); [18]) was 0 and the “Plant response rating, Corn” value (corn (Zea mays); [19]) was 10. The “Plant response rating, Corn” value (corn (Zea mays); [20]) was 10, the “Corn plant response rating” value (corn (Zea mays); [21]) was 55 and the “Corn plant response rating” value (corn (Zea mays); [17]) was 10. The “Plant response rating, Blackgrass” value [6, 14] was 0, the “Blackgrass plant response rating” value [6, 15] was 0 and the “Plant response rating, Blackgrass” value [6, 16] was 0. For the same compound, the “Plant response rating, Blackgrass” value [6, 18] was 30, the “Plant response rating, Blackgrass” value [6, 19] was 40 and the “Plant response rating, Blackgrass” value [6, 20] was 30. For the same compound, the “Blackgrass plant response rating” value [6, 21] was 90, the “Blackgrass plant response rating” value [6, 17] was 0 and the “Plant response rating, Crabgrass, Large” value [7, 14] was 30. For the same compound, the “Crabgrass, Large plant response rating” value [7, 15] was 30, the “Plant response rating, Crabgrass, Large” value [7, 16] was 35 and the “Plant response rating, Crabgrass, Large” value [7, 18] was 20. The “Plant response rating, Crabgrass, Large” value [7, 19] was 20, the “Plant response rating, Crabgrass, Large” value [7, 20] was 70 and the “Crabgrass, Large plant response rating” value [7, 21] was 80. The “Crabgrass, Large plant response rating” value [7, 17] was 35, the “Plant response rating, Ryegrass, Italian” value [8, 14] was 10 and the “Ryegrass, Italian plant response rating” value [8, 15] was 30. The “Plant response rating, Ryegrass, Italian” value [8, 16] was 60, the “Plant response rating, Ryegrass, Italian” value [8, 18] was 85 and the “Plant response rating, Ryegrass, Italian” value [8, 19] was 95. For the same compound, the “Plant response rating, Ryegrass, Italian” value [8, 20] was 100, the “Ryegrass, Italian plant response rating” value [8, 21] was 100 and the “Ryegrass, Italian plant response rating” value [8, 17] was 30. For the same compound, the “Plant response rating, Pigweed” value [9, 14] was 90, the “Pigweed plant response rating” value [9, 15] was 98 and the “Plant response rating, Pigweed” value [9, 16] was 100. For the same compound, the “Plant response rating, Pigweed” value [9, 18] was 100, the “Plant response rating, Pigweed” value [9, 19] was 100 and the “Plant response rating, Pigweed” value [9, 20] was 100. The “Pigweed plant response rating” value [9, 21] was 100, the “Pigweed plant response rating” value [9, 17] was 98 and the “Plant response rating, Foxtail, Giant” value [10, 14] was 45. The “Foxtail, Giant plant response rating” value [10, 15] was 60, the “Plant response rating, Foxtail, Giant” value [10, 16] was 95 and the “Plant response rating, Foxtail, Giant” value [10, 18] was 65. For the same compound, the “Plant response rating, Foxtail, Giant” value [10, 19] was 85, the “Plant response rating, Foxtail, Giant” value [10, 20] was 95 and the “Foxtail, Giant plant response rating” value [10, 21] was 100. For the same compound, the “Foxtail, Giant plant response rating” value [10, 17] was 80, the “Plant response rating, Wheat” value [11, 14] was 75 and the “Wheat plant response rating” value [11, 15] was 90. The “Plant response rating, Wheat” value [11, 16] was 95, the “Plant response rating, Wheat” value [11, 18] was 15 and the “Plant response rating, Wheat” value [11, 19] was 80. For the same compound, the “Plant response rating, Wheat” value [11, 20] was 90, the “Wheat plant response rating” value [11, 21] was 90 and the “Wheat plant response rating” value [11, 17] was 90. For the same compound, the “Plant response rating, Nutsedge, Yellow” value [12, 14] was 65, the “Nutsedge, Yellow plant response rating” value [12, 15] was 85 and the “Plant response rating, Nutsedge, Yellow” value [12, 16] was 90. The “Plant response rating, Nutsedge, Yellow” value [12, 18] was 55, the “Plant response rating, Nutsedge, Yellow” value [12, 19] was 85 and the “Plant response rating, Nutsedge, Yellow” value [12, 20] was 90. For the same compound, the “Nutsedge, Yellow plant response rating” value [12, 21] was 95, the “Nutsedge, Yellow plant response rating” value [12, 17] was 85 and the “Plant response rating, Johnsongrass” value [13, 14] was 10. The “Johnsongrass plant response rating” value [13, 15] was 10, the “Plant response rating, Johnsongrass” value [13, 16] was 15 and the “Plant response rating, Johnsongrass” value [13, 18] was 0. For the same compound, the “Plant response rating, Johnsongrass” value [13, 19] was 5, the “Plant response rating, Johnsongrass” value [13, 20] was 20 and the “Johnsongrass plant response rating” value [13, 21] was 20. For the same compound, the “Johnsongrass plant response rating” value [13, 17] was 15.
